Reference: patent US11702417B2, “Compounds for improving mRNA splicing” (The General Hospital Corporation, priority 2015, dated 2023)

Test system: FD (familial dysautomonia) IKBKAP minigene, exon 20 inclusion, in HEK293T cells
Test: Primary splicing assay (FD IKBKAP minigene, Firefly/Renilla luciferase reporter in HEK293T)
Type: cell-based, human
Conditions: Homo sapiens, HEK-293T, Firefly/Renilla ratio, 24 hours of treatment; for EC (maximum kinetin efficacy): HEK293T, read-out: ECk (compound concentration at which the maximum kinetin efficacy (200 μM) is reached); for Emax: max efficacy in Primary Assay, kinetin and DMSO as positive and negative controls, read-out: Emax (%)

| SMILES | EC (maximum kinetin efficacy) [µM] | Emax [%] |
| --- | --- | --- |
| COCCOc1nc2c(NCc3ccco3)nc(Cl)nc2[nH]1 [(293)] | 1.78 | 169 |
| Clc1nc(NCc2ccncc2)c2nc(OC3CCC3)[nH]c2n1 [(294)] | 0.44 | 183 |
| Clc1cc(NCc2nccs2)n2ccnc2n1 [(295)] | – | 54 |
| COCCCOc1nc2c(NCc3ccco3)nc(Cl)nc2[nH]1 [(296)] | 1.81 | 178 |
| COc1nc2c(NCc3ccco3)nc(Cl)nc2n1CCO [(297)] | 4.09 | 150 |
| Clc1cc(NCc2ccncn2)n2ccnc2n1 [(298)] | – | 21 |
| FC(F)(F)COc1nc2c(NCc3ccncc3)nc(Cl)nc2[nH]1 [(299)] | 1.3 | 216 |
| COc1nc2c(NCc3ccncn3)nc(Cl)nc2n1CCO [(300)] | 10 | 84 |
| Cn1cnc2c(NCc3nccs3)nc(Cl)nc21 [(301)] | – | 45 |
| CSc1nc2c(NCc3ccncn3)nc(Cl)nc2[nH]1 [(303)] | 1.51 | 243 |
| Cn1cnc2nc(Cl)nc(NCc3nccs3)c21 [(304)] | 4.14 | 166 |
| CCCCOc1nc2c(NCc3ccncc3)nc(Cl)nc2[nH]1 [(305)] | 0.43 | 284 |
| CCCOc1nc2c(NCc3ccco3)nc(Cl)nc2n1CCO [(306)] | 0.7 | 247 |
| Clc1nc(NCc2ccncc2)c2nc(OCC3CCC3)[nH]c2n1 [(307)] | 0.21 | 292 |
| Clc1nc(NCc2ccco2)c2nc(OCC3CCC3)[nH]c2n1 [(308)] | 0.15 | 310 |
| OCCOc1nc2c(NCc3ccncn3)nc(Cl)nc2[nH]1 [(309)] | 2.08 | 194 |
| OCCOc1nc2c(NCc3nccs3)nc(Cl)nc2[nH]1 [(310)] | 1.5 | 191 |
| CCCCOc1nc2c(NCc3ccco3)nc(Cl)nc2[nH]1 [(311)] | 0.56 | 221 |
| CCCOc1nc2c(NCc3nccs3)nc(Cl)nc2n1CCO [(312)] | 2.29 | 195 |
| Cn1cnc2nc(Cl)nc(NCc3ccncc3)c21 [(313)] | 7.48 | 102 |
| Cn1cnc2nc(Cl)nc(NCc3ccco3)c21 [(314)] | 2.31 | 198 |
| OCCOc1nc2c(NCc3ccncc3)nc(Cl)nc2[nH]1 [(315)] | 2.52 | 165 |
| Cn1cnc2nc(Cl)nc(NCc3ccncn3)c21 [(316)] | 7.09 | 108 |

| SMILES | EC (maximum kinetin efficacy) [µM] | Emax [%] |
| --- | --- | --- |
| CCCOc1nc2c(NCc3ccncn3)nc(Cl)nc2[nH]1 [(317)] | 0.16 | 223 |
| CCCCOc1nc2c(NCc3nccs3)nc(Cl)nc2[nH]1 [(318)] | 0.54 | 186 |
| Clc1nc(NCc2ccncn2)c2nc(OC3CCC3)[nH]c2n1 [(321)] | 1.41 | 197 |
| Clc1cc(NCc2ccco2)n2nccc2n1 [(322)] | – | 21 |
| Clc1nc(NCc2ccco2)c2nc[nH]c2n1 [(323)] | – | 26 |
| Clc1nc(NCc2nccs2)c2nc(OCC3CCC3)[nH]c2n1 [(324)] | 0.16 | 226 |
| Clc1cc(NCc2nccs2)n2nccc2n1 [(325)] | – | 20 |
| Clc1nc(NCc2ccncn2)c2nc(OCC3CCC3)[nH]c2n1 [(326)] | 0.07 | 287 |
| CC(C)(C)OC(=O)N1CC(Oc2nc3c(NCc4ccncc4)nc(Cl)nc3[nH]2)C1 [(327)] | 4.64 | 145 |
| COCCOc1nc2c(NCc3nccs3)nc(Cl)nc2[nH]1 [(328)] | 1.79 | 184 |
| Clc1nc(NCc2nccs2)c2nc(OCc3nccs3)[nH]c2n1 [(329)] | 1.97 | 209 |
| Clc1cc(NCc2ccncn2)n2nccc2n1 [(330)] | – | 20 |
| FC(F)(F)COc1nc2c(NCc3ccncn3)nc(Cl)nc2[nH]1 [(331)] | 0.69 | 209 |
| Clc1nc(NCc2nccs2)c2nc(OCC3CCCC3)[nH]c2n1 [(332)] | 0.78 | 189 |
| Clc1nc(NCc2ccco2)c2nc(OC3CNC3)[nH]c2n1 [(333)] | – | 51 |
| Clc1nc(NCc2ccncc2)c2nc(OCC3CCCC3)[nH]c2n1 [(334)] | 0.87 | 177 |
| CCCOc1nc2nc(Cl)nc(NCc3nccs3)c2n1C [(335)] | – | 35 |
| CCCOc1nc2nc(Cl)nc(NCc3ccncc3)c2n1C [(336)] | – | 20 |
| CCCOc1nc2nc(Cl)nc(NCc3ccncn3)c2n1C [(337)] | – | 23 |
| Clc1nc(NCc2ccco2)c2nc(OCC3CCCC3)[nH]c2n1 [(338)] | 1.1 | 222 |
| CCCOc1nc2c(NCc3ccncc3)nc(Cl)nc2n1CCO [(339)] | 1.31 | 188 |
| Clc1nc(NCc2ccncn2)c2nc(OCc3nccs3)[nH]c2n1 [(340)] | 0.95 | 220 |
| Clc1nc(NCc2nccs2)c2nc(OCC3CCC3)sc2n1 [(341)] | 4.16 | 155 |
